Data as given in patent US20260027179A1, “ANTI-SYNUCLEINOPATHY PEPTIDE AND METHODS TO TREAT NEURODEGENERATIVE DISEASES” (University of British Columbia, priority 2021, published 2026).

Columns and labels:
14-3-3 = 14-3-3 level in cortical cultures, immunoblot; type: cell-based, rat; settings: 50 μM, 24 hrs
Protocol: Primary rat neuron cultures were prepared from embryos of pregnant Sprague-Dawley rats (E18). The experimental protocol was approved by the University of British Columbia Animal Care Committee. Briefly, the cortical tissue or ventral midbrain tissue was isolated into ice cold HBSS (Invitrogen, 14170-112) and then digested with 0.25% trypsin-EDTA at 37° C. for 30 min. After washing with warm DMEM (supplemented with 10% FBS) three times, neurons were suspended in neuron culture media and dissociated by trituration using varying sizes of pipettes. Neurons were then centrifuged, and the pellet was re-suspended in culture media, washed twice with culture media, and plated on the poly-D-lysine-coated plates. Neuron culture was maintained in the 37° C. incubator with 95% O2 and 5% CO2. The morning after culturing, 2/3 of the neuron culture media was replaced with fresh neuron culture media. Media was then replaced every 3-4 days. […]
Brain tissues or cultured cells were lysed on ice in the lysis buffer and then the solution was centrifuged at 14,000 rpm for 10 min at 4° C. Next, the supernatant was collected and protein concentrations were determined using a BCA protein assay kit (Thermo Scientific, 23227). […] The band density of each protein was quantified by the Bio-Rad Quantity One software and the relative optical density was analyzed relative to the loading control β-actin on the same membrane.

Iba-1 = assay: PFF mouse model of spreading synucleinopathy, microglial Iba-1 immunostaining; type: in vivo; settings: PFF-injected M83 mice, 40 mg/kg i.p. over 20 days, at three months, vs Tat-βsyn group
Protocol: M83 mice were injected intracerebrally (i.e.) into the right dorsal striatum with either 12.5 μg of α-synuclein pre-formed fibrils (PFFs) or PBS. Starting at 3 days prior to the PFF injection, mice were treated daily for 12 days with either Tat-βsyn or Tat-βsyn-degron peptide (40 mg/kg; i.p.) and once every other day for the subsequent 8 days (20 days in total, FIG. 5a). At the end of three months, coronal brain sections of the M83 mice were prepared and stained with antibodies against serine 129-phosphorylated α-synuclein (pS129syn), a marker of pathogenic synuclein aggregates, and Iba-1, a calcium-binding protein specifically expressed in macrophage and microglia as a marker of neuroinflammation.
PFFs were generated in-house based on the Volpicelli-Daley et al protocol. […] PFFs were characterized using a negative staining protocol and analyzed using an electron microscope. […] PFFs were visualized using a transmission electron microscope (FEI Tecnai 12 Bio Twin 120 kV TEM) coupled to a AMT XR80C CCD camera, and analyzed with ImageJ 1.5 and Matlab 2017b software. […]
Brains from M83 mice that received i.e. and i.p. injections were processed for immunohistochemistry. […] Coronal sections were analyzed using Fiji-ImageJ 1.5 software to detect the total area labeled with the peroxidase immunoreaction product. The results were analyzed using GraphPad Prism software.

## YGRKKRRQRRRRTKSGVYLVGRRRG (The sequence is synthesized (YGRKKRRQRRRRTKSGVYLVGRRRG)) [Tat-βsyn-degron]
14-3-3
  expression level of 14-3-3: did not affect the expression levels
Iba-1
  Iba-1 staining in pons: significantly reduced the level of Iba-1 staining
  Iba-1 staining in substantia nigra pars compacta: no observable effect
